Data reported in patent US12139520B2 (priority 2020, dated 2024).
pEC50: −log10 of the molar value. Bridge positions count the residues as written; N and C are the ends. Square brackets hold non-standard residues; d marks the D form. Peptide text beside a SMILES is read from it. Hyp = O=C(O)[C@@H]1C[C@@H](O)CN1; Cit = NC(=O)NCCC[C@H](N)C(=O)O

How the values were obtained:
hAMY3 receptor = target: T1, hAMY3 receptor (Homo sapiens, UniProt O60896+P30988); assay: cAMP assay for in vitro receptor activation, hAMY3-R; assay type: cell-based; conditions: cAMP assay, hAMY3 receptor; read-out: hAMY3R EC50
T1 sequence (P30988 25-474): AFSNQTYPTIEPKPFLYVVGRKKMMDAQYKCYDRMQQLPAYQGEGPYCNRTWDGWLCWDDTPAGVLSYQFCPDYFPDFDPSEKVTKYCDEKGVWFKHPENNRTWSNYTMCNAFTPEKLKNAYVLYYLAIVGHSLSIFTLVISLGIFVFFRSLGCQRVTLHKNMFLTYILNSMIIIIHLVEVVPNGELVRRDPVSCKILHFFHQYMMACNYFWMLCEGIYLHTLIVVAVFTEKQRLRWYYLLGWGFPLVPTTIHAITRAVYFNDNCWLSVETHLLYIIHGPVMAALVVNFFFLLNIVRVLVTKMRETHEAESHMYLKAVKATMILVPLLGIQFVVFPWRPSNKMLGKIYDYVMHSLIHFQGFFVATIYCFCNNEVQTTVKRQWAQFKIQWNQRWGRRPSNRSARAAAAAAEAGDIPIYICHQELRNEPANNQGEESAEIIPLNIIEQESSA
T1 sequence (O60896 24-148 partner): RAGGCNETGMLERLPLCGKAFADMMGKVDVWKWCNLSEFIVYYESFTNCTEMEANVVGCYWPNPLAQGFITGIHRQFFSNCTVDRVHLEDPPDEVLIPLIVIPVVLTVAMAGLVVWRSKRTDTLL
Procedure, shortened: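 Stable hAMY3 cells; DPBS + 0.05% casein + 0.5 mM IBMX; graded compound doses, 30 min, RT; cAMP via HTRF Gs kit, TR-FRET read at 1 h.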

hAM1 receptor = hAM1 receptor (Homo sapiens, UniProt O60895+Q16602); assay: cAMP assay for in vitro receptor activation, hAM1-R; assay type: cell-based; conditions: cAMP assay, hAM1 receptor; read-out: hAM1R EC50
Procedure, shortened: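 Stable hAM1 cells (monoclonal) plated 8000/well; buffer DPBS, 0.05% casein, 0.5 mM IBMX; cAMP read-out.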

[1] = Physical stability of peptide analogues (Thioflavin T fibrillation); assay type: physicochemical; conditions: maximum ThT signal normalized between hAMY maximum and buffer background; 40° C., shaking, four days; pH 7 per table title
Procedure, shortened: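 Maximum ThT emission at 480 nm, after LOESS smoothing, is given as percent of the span from buffer background to hAMY. Conditions: 50 mM buffer at pH 4 or 7, 4 μM dye, 40 °C, repeated shaking, readings every 10 min for four days.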

Chain of hAM1 receptor (Q16602 23-461): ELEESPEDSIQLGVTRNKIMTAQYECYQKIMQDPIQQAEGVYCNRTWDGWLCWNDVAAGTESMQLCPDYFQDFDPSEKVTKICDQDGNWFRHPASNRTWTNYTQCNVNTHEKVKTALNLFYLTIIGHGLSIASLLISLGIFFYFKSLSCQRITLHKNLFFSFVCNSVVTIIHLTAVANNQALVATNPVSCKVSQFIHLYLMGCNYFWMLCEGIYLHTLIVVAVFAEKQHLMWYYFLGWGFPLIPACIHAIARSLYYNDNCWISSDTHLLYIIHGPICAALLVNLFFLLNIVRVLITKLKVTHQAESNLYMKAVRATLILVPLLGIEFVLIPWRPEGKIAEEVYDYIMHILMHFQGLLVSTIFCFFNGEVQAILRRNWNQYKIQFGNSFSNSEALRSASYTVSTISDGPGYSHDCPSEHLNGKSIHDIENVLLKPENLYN
Chain of hAM1 receptor (O60895 43-175 partner): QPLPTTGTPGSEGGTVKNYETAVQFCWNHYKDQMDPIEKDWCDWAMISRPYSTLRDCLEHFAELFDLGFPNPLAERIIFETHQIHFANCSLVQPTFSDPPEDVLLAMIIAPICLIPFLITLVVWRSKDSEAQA

What does the source list for `CC[C@H](C)[C@H](NC(=O)[C@H](CCC(N)=O)NC(=O)[C@H](Cc1c[nH]cn1)NC(=O)[C@H](C)NC(=O)[C@H](CC(C)C)NC(=O)[C@H](CCCNC(N)=O)NC(=O)[C@H](CCC(N)=O)NC(=O)[C@@H](NC(=O)[C@@H](NC(=O)[C@@H]1CSSC[C@H](NC(=O)[C@@H](N)CCCCN)C(=O)N[C@@H](CC(N)=O)C(=O)N[C@@H]([C@@H](C)O)C(=O)N[C@@H](C)C(=O)N[C@@H]([C@@H](C)O)C(=O)N1)[C@@H](C)O)C(C)C)C(=O)N[C@@H](Cc1ccc(O)cc1)C(=O)N[C@@H](CCC(N)=O)C(=O)N[C@@H](Cc1ccccc1)C(=O)N[C@@H](C)C(=O)N[C@@H](CC(=O)O)C(=O)N[C@@H](CCCCN)C(=O)N[C@@H](CC(=O)O)C(=O)N[C@@H](CCCCN)C(=O)N[C@@H](CC(=O)O)C(=O)N[C@@H](CC(N)=O)C(=O)N[C@H](C(=O)N[C@@H](C)C(=O)N1CCC[C@H]1C(=O)N1CCC[C@H]1C(=O)N[C@H](C(=O)N[C@@H](CC(N)=O)C(=O)N[C@H](C(=O)NCC(=O)N[C@@H](CO)C(=O)N[C@@H](CC(N)=O)C(=O)NCC(=O)N1C[C@H](O)C[C@H]1C(N)=O)C(C)C)[C@@H](C)O)C(C)C` [compound 249] (H-KCNTATCTVQ[Cit]LAHQIYQFADKDKDNVAPPTNVGSNG[Hyp]-NH2; disulfide 2-7; N-terminus assumed)?
pEC50 (hAMY3 receptor): 11.22; pEC50 (hAM1 receptor): < 5.30; Max ThT signal (%) [1]: 15.600%

What does the source list for `CC[C@H](C)[C@H](NC(=O)[C@H](CCC(N)=O)NC(=O)[C@H](Cc1c[nH]cn1)NC(=O)[C@H](C)NC(=O)[C@H](CC(C)C)NC(=O)[C@H](CCCNC(N)=O)NC(=O)[C@H](CCC(N)=O)NC(=O)[C@@H](NC(=O)[C@@H](NC(=O)[C@@H]1CSSC[C@H](NC(=O)[C@@H](N)CCCCN)C(=O)N[C@@H](CC(N)=O)C(=O)N[C@@H]([C@@H](C)O)C(=O)N[C@@H](C)C(=O)N[C@@H]([C@@H](C)O)C(=O)N1)[C@@H](C)O)C(C)C)C(=O)N[C@@H](Cc1ccc(O)cc1)C(=O)N[C@@H](CCC(N)=O)C(=O)N[C@@H](Cc1ccccc1)C(=O)N[C@H](C(=O)N[C@@H](CCCCN)C(=O)N[C@@H](CC(=O)O)C(=O)N[C@@H](CCCCN)C(=O)N[C@@H](CC(=O)O)C(=O)N[C@@H](CC(N)=O)C(=O)N[C@H](C(=O)N[C@@H](C)C(=O)N1CCC[C@H]1C(=O)N1CCC[C@H]1C(=O)N[C@H](C(=O)N[C@@H](CC(N)=O)C(=O)N[C@H](C(=O)NCC(=O)N[C@@H](CO)C(=O)N[C@@H](CC(N)=O)C(=O)NCC(=O)N1C[C@H](O)C[C@H]1C(N)=O)C(C)C)[C@@H](C)O)C(C)C)[C@@H](C)O` [compound 253] (H-KCNTATCTVQ[Cit]LAHQIYQFTKDKDNVAPPTNVGSNG[Hyp]-NH2; disulfide 2-7; N-terminus assumed)?
pEC50 (hAMY3 receptor): 11.40; pEC50 (hAM1 receptor): < 5.30; Max ThT signal (%) [1]: 9.600%

With `CC[C@H](C)[C@H](NC(=O)[C@H](CCC(N)=O)NC(=O)[C@H](Cc1c[nH]cn1)NC(=O)[C@H](C)NC(=O)[C@H](CC(C)C)NC(=O)[C@H](CCCNC(=N)N)NC(=O)[C@H](CCC(N)=O)NC(=O)[C@@H](NC(=O)[C@@H](NC(=O)[C@@H]1CSSC[C@H](NC(=O)[C@@H](N)CCCCN)C(=O)N[C@@H](CC(N)=O)C(=O)N[C@@H]([C@@H](C)O)C(=O)N[C@@H](C)C(=O)N[C@@H]([C@@H](C)O)C(=O)N1)[C@@H](C)O)C(C)C)C(=O)N[C@@H](Cc1ccc(O)cc1)C(=O)N[C@@H](CCC(N)=O)C(=O)N[C@@H](C)C(=O)N[C@H](C(=O)N[C@@H](CC(=O)O)C(=O)N[C@@H](CCCCN)C(=O)N[C@@H](CC(=O)O)C(=O)N[C@@H](CCCCN)C(=O)N[C@@H](CC(=O)O)C(=O)N[C@@H](CC(N)=O)C(=O)N[C@H](C(=O)N[C@@H](C)C(=O)N1CCC[C@H]1C(=O)N1CCC[C@H]1C(=O)N[C@H](C(=O)N[C@@H](CC(N)=O)C(=O)N[C@H](C(=O)NCC(=O)N[C@@H](CO)C(=O)N[C@@H](CC(N)=O)C(=O)NCC(=O)N1C[C@H](O)C[C@H]1C(N)=O)C(C)C)[C@@H](C)O)C(C)C)[C@@H](C)O` [compound 114] (H-KCNTATCTVQRLAHQIYQATDKDKDNVAPPTNVGSNG[Hyp]-NH2; disulfide 2-7; N-terminus assumed) as the compound, how does the pEC50 (hAMY3 receptor) read?
The pEC50 was 10.66.

What about the pEC50 (hAM1 receptor) of the same compound?
The pEC50 was less than 5.30.

What about the “Max ThT signal (%)” value [1] of the same compound?
The value was 2.200%.

With `CC[C@H](C)[C@H](NC(=O)[C@H](CCC(N)=O)NC(=O)[C@H](Cc1c[nH]cn1)NC(=O)[C@H](C)NC(=O)[C@H](CC(C)C)NC(=O)[C@H](Cc1c[nH]c2ccccc12)NC(=O)[C@H](CCC(N)=O)NC(=O)[C@@H](NC(=O)[C@@H](NC(=O)[C@@H]1CSSC[C@H](NC(=O)[C@@H](N)CCCCN)C(=O)N[C@@H](CC(N)=O)C(=O)N[C@@H]([C@@H](C)O)C(=O)N[C@@H](C)C(=O)N[C@@H]([C@@H](C)O)C(=O)N1)[C@@H](C)O)C(C)C)C(=O)N[C@@H](C)C(=O)N[C@@H](CCC(N)=O)C(=O)N[C@@H](Cc1ccccc1)C(=O)N[C@H](C(=O)N[C@@H](CC(=O)O)C(=O)N[C@@H](CCCCN)C(=O)N[C@@H](CC(=O)O)C(=O)N[C@@H](CCCCN)C(=O)N[C@@H](CC(=O)O)C(=O)N[C@@H](CC(N)=O)C(=O)N[C@H](C(=O)N[C@@H](C)C(=O)N1CCC[C@H]1C(=O)N1CCC[C@H]1C(=O)N[C@H](C(=O)N[C@@H](CC(N)=O)C(=O)N[C@H](C(=O)NCC(=O)N[C@@H](CO)C(=O)N[C@@H](CC(N)=O)C(=O)NCC(=O)N1C[C@H](O)C[C@H]1C(N)=O)C(C)C)[C@@H](C)O)C(C)C)[C@@H](C)O` [compound 309] (H-KCNTATCTVQWLAHQIAQFTDKDKDNVAPPTNVGSNG[Hyp]-NH2; disulfide 2-7; N-terminus assumed) as the compound, how does the pEC50 (hAMY3 receptor) read?
Its pEC50 is 10.60.

What about the pEC50 (hAM1 receptor) of the same compound?
The pEC50 was less than 5.30.

And the “Max ThT signal (%)” value [1]?
The value was 4.250%.

With `CC[C@H](C)[C@H](NC(=O)[C@H](CCC(N)=O)NC(=O)[C@H](Cc1c[nH]cn1)NC(=O)[C@H](C)NC(=O)[C@H](CC(C)C)NC(=O)[C@H](CCCNC(N)=O)NC(=O)[C@H](CCC(N)=O)NC(=O)[C@@H](NC(=O)[C@@H](NC(=O)[C@@H]1CSSC[C@H](NC(=O)[C@@H](N)CCCCN)C(=O)N[C@@H](CC(N)=O)C(=O)N[C@@H]([C@@H](C)O)C(=O)N[C@@H](C)C(=O)N[C@@H]([C@@H](C)O)C(=O)N1)[C@@H](C)O)C(C)C)C(=O)N[C@@H](Cc1ccc(O)cc1)C(=O)N[C@@H](CCC(N)=O)C(=O)N[C@@H](Cc1ccccc1)C(=O)N[C@H](C(=O)N[C@@H](CC(=O)O)C(=O)N[C@@H](CCCCN)C(=O)N[C@@H](CC(=O)O)C(=O)N[C@@H](C)C(=O)N[C@@H](CC(=O)O)C(=O)N[C@@H](CC(N)=O)C(=O)N[C@H](C(=O)N[C@@H](C)C(=O)N1CCC[C@H]1C(=O)N1CCC[C@H]1C(=O)N[C@H](C(=O)N[C@@H](CC(N)=O)C(=O)N[C@H](C(=O)NCC(=O)N[C@@H](CO)C(=O)N[C@@H](CC(N)=O)C(=O)NCC(=O)N1C[C@H](O)C[C@H]1C(N)=O)C(C)C)[C@@H](C)O)C(C)C)[C@@H](C)O` [compound 250] (H-KCNTATCTVQ[Cit]LAHQIYQFTDKDADNVAPPTNVGSNG[Hyp]-NH2; disulfide 2-7; N-terminus assumed) as the compound, how does the pEC50 (hAMY3 receptor) read?
Its pEC50 is 10.96.

What about the pEC50 (hAM1 receptor) of the same compound?
The pEC50 was less than 5.30.

What about the “Max ThT signal (%)” value [1] of the same compound?
Its value is 6.400%.

With `CC[C@H](C)[C@H](NC(=O)[C@H](CCC(N)=O)NC(=O)[C@H](Cc1c[nH]cn1)NC(=O)[C@H](C)NC(=O)[C@H](CC(C)C)NC(=O)[C@H](CCCNC(=N)N)NC(=O)[C@H](CCC(N)=O)NC(=O)[C@@H](NC(=O)[C@@H](NC(=O)[C@@H]1CSSC[C@H](NC(=O)CN)C(=O)N[C@@H](CCCNC(=N)N)C(=O)N[C@@H]([C@@H](C)O)C(=O)NCC(=O)N[C@@H]([C@@H](C)O)C(=O)N1)[C@@H](C)O)C(C)C)C(=O)N[C@@H](Cc1ccc(O)cc1)C(=O)N[C@@H](CCC(N)=O)C(=O)N[C@@H](Cc1ccccc1)C(=O)N[C@H](C(=O)N[C@@H](CC(=O)O)C(=O)N[C@@H](CCCCN)C(=O)N[C@@H](Cc1ccccc1)C(=O)N[C@@H](CCCCN)C(=O)N[C@@H](CC(=O)O)C(=O)N[C@@H](CC(N)=O)C(=O)N[C@H](C(=O)N[C@@H](C)C(=O)N1CCC[C@H]1C(=O)N[C@@H](CCCNC(=N)N)C(=O)N[C@@H](CO)C(=O)N[C@@H](CCCCN)C(=O)N[C@H](C(=O)N[C@@H](CO)C(=O)N1CCC[C@H]1C(=O)N[C@@H](CCC(N)=O)C(=O)N[C@@H](Cc1ccc(O)cc1)C(=O)N1C[C@H](O)C[C@H]1C(N)=O)[C@@H](C)CC)C(C)C)[C@@H](C)O` [compound 186] (H-GCRTGTCTVQRLAHQIYQFTDKFKDNVAPRSKISPQY[Hyp]-NH2; disulfide 2-7; N-terminus assumed) as the compound, how does the pEC50 (hAMY3 receptor) read?
Its pEC50 is 10.04.

What about the pEC50 (hAM1 receptor) of the same compound?
The pEC50 was less than 5.30.

What about the “Max ThT signal (%)” value [1] of the same compound?
Its value is 0.600%.
